The source made the active and inactive calls. The rule behind the calls is not given here.
Experiments:
HCT-116 [1] = experiment: Cytotoxicity against human HCT116 cells assessed as reduction in cell viability by MTT assay; assay type: functional, cell-based
Staphylococcus aureus [2] = experiment: Antibacterial activity against multi-resistant Staphylococcus aureus ATCC BAA-44 by microbroth dilution method; assay type: functional, organism-based
Staphylococcus aureus [3] = experiment: Antibacterial activity against methicillin-resistant Staphylococcus aureus ATCC BAA-41 by microbroth dilution method; assay type: functional, organism-based
[4] = Metal chelating activity of the compound assessed as Fe2+-compound complex formation by measuring absorbance at > 50 uM in presence of ferrozine by spectrophotometric method
Pseudomonas aeruginosa [5] = experiment: Antibacterial activity against Pseudomonas aeruginosa ATCC 15442 by microbroth dilution method; assay type: functional, organism-based
[6] = Antioxidant activity assessed as DPPH radical scavenging activity at > 50 uM and measure every 10 mins for 30 mins subsequently measured every 30 mins for 4 hrs by spectrophotometric method; assay type: functional
Staphylococcus aureus [7] = experiment: Antibacterial activity against Staphylococcus aureus ATCC 25923 by microbroth dilution method; assay type: functional, organism-based
Pseudomonas aeruginosa [8] = experiment: Antibacterial activity against Pseudomonas aeruginosa ATCC 15442 assessed as growth inhibition at 0.125 mg/ml by microbroth dilution method relative to control; assay type: functional; conditions: read-out: GI
Staphylococcus aureus [9] = experiment: Antibacterial activity against Staphylococcus aureus ATCC 25923 assessed as growth inhibition at 0.125 mg/m by microbroth dilution method relative to control; assay type: functional
[10] = Stability of compound in methanol; assay type: physicochemical
Staphylococcus aureus [11] = experiment: Antibacterial activity against methicillin-resistant Staphylococcus aureus ATCC BAA-41 assessed as growth inhibition at 0.125 mg/m by microbroth dilution method relative to control; assay type: functional
HCT-116 [12] = experiment: Cytotoxicity against human HCT116 cells assessed as assessed as growth inhibition at 200 uM by MTT assay relative to control; assay type: functional; conditions: read-out: GI

| SMILES | Activity (HCT-116 [1]) | Activity (Staphylococcus aureus [2]) | Activity (Staphylococcus aureus [3]) | Activity [4] | Activity (Pseudomonas aeruginosa [5]) | Activity [6] | Activity (Staphylococcus aureus [7]) | other results |
| --- | --- | --- | --- | --- | --- | --- | --- | --- |
| CC(=O)Cc1cc(O)cc2c1CC(C)C(O)(C(C)C(=O)/C(C)=C/C(C)=C/C(C)C(C)O)O2 (configuration not stated) | inactive | inactive | inactive | inactive | inactive | inactive | inactive | – |
| NC[C@H]1O[C@H](O[C@H]2[C@H](O)[C@@H](O[C@H]3O[C@H](CO)[C@@H](O)[C@H](N)[C@H]3O)[C@H](N)C[C@@H]2N)[C@H](O)[C@@H](O)[C@@H]1O [KANAMYCIN] | – | – | – | – | – | – | – | inhibition of growth at 125 µg/mL (Pseudomonas aeruginosa [8]): 100%; growth inhibition (GI) (Staphylococcus aureus [9]): 100% |
| COc1cc(O)cc(CC(C)=O)c1C[C@@H](C)C(=O)[C@H](C)C(=O)/C(C)=C/C(C)=C/[C@H](C)[C@H](C)O | inactive | inactive | inactive | inactive | inactive | inactive | inactive | – |
| C=C[C@]1(C)C=C2C(=O)[C@]3(O)OC(=O)[C@@]4(CCCC(C)(C)[C@@H]43)[C@H]2CC1 | – | – | – | – | – | – | – | IC50 (HCT-116 [1]): 32.7 µM; IC50 (Staphylococcus aureus [3]): 77.8 µM; Stability [10]: Unstable; IC50 (Pseudomonas aeruginosa [5]): > 100 µM; IC50 (Staphylococcus aureus [7]): 71.6 µM |
| C=C[C@]1(C)C=C2C(=O)[C@@]3(O)OC(=O)[C@@]4(CCCC(C)(C)[C@H]34)[C@@]2(O)CC1 [SPHAEROPSIDIN A] | – | – | – | – | – | – | – | IC50 (HCT-116 [1]): 4.9 µM; IC50 (Staphylococcus aureus [3]): 35.3 µM; Stability [10]: Stable; IC50 (Pseudomonas aeruginosa [5]): > 100 µM; IC50 (Staphylococcus aureus [7]): 32.6 µM |
| COc1cc(O)cc(CC(C)=O)c1C[C@@H](C)C(=O)[C@@H](C)C(=O)/C(C)=C/C(C)=C/[C@H](C)[C@H](C)O | inactive | inactive | inactive | inactive | inactive | inactive | inactive | – |
| CN[C@H](CC(C)C)C(=O)N[C@H]1C(=O)N[C@@H](CC(N)=O)C(=O)N[C@H]2C(=O)N[C@H]3C(=O)N[C@H](C(=O)N[C@H](C(=O)O)c4cc(O)cc(O)c4-c4cc3ccc4O)[C@H](O)c3ccc(c(Cl)c3)Oc3cc2cc(c3O[C@@H]2O[C@H](CO)[C@@H](O)[C@H](O)[C@H]2O[C@H]2C[C@](C)(N)[C@H](O)[C@H](C)O2)Oc2ccc(cc2Cl)[C@H]1O [VANCOMYCIN] | – | – | – | – | – | – | – | growth inhibition (GI) (Staphylococcus aureus [11]): 100% |
| COc1cc([C@@H]2c3cc4c(cc3[C@@H](O[C@@H]3O[C@@H]5CO[C@@H](C)O[C@H]5[C@H](O)[C@H]3O)[C@H]3COC(=O)[C@H]23)OCO4)cc(OC)c1O [ETOPOSIDE] | – | – | – | – | – | – | – | inhibition of growth at 200 µM (HCT-116 [12]): 82.8% |
| CC(=O)Cc1cc(O)cc(O)c1CC(C)C(=O)C(C)C(=O)/C(C)=C/C(C)=C/C(C)C(C)O (configuration not stated) | inactive | inactive | inactive | inactive | inactive | inactive | inactive | – |

Reference: ChEMBL document CHEMBL4414597, “Polyketides from Marine-Derived Aspergillus porosus: Challenges and Opportunities for Determining Absolute Configuration” (J Nat Prod, 2019)
